{
  "source": "patent US10744141B2",
  "about": "“Compositions and methods for treating cancer” (CASE WESTERN RESERVE UNIVERSITY, priority 2015, dated 2020)",
  "key": {"[1]": {"biological_target": "PP2A A-C dimer (Homo sapiens, UniProt P30153+P67775)", "sequence (P30153 whole entry)": "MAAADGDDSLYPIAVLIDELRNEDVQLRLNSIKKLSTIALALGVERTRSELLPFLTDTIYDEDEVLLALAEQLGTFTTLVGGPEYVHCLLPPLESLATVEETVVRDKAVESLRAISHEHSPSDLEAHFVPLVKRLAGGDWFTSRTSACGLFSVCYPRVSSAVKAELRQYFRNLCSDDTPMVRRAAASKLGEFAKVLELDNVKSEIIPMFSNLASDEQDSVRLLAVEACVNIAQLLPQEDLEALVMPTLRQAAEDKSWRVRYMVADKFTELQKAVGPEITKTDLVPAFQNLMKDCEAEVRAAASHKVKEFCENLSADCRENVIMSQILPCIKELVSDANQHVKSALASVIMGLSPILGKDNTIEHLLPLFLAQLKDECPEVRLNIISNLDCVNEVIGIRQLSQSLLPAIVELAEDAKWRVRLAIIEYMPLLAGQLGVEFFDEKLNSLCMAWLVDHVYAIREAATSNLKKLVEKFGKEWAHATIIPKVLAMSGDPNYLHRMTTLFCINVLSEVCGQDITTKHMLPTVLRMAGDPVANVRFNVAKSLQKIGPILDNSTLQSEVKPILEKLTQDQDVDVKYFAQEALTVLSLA", "sequence (P67775 whole entry)": "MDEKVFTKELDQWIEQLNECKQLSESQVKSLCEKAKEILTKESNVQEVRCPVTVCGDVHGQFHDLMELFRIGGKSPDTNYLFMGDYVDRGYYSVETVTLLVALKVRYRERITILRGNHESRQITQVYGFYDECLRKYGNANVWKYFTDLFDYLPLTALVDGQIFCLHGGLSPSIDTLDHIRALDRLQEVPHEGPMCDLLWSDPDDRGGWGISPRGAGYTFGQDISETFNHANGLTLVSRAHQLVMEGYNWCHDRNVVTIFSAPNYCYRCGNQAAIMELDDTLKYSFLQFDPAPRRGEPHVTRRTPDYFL", "experiment": "Radiolytic MS footprinting of PP2A A-C dimer with and without Compound 1", "text": "FIG. 2 is a model illustrating a visual representation of conformational changes in the PP2A A-C dimer as detected by radiolytic MS footprinting.\nIn order to elucidate the conformational changes in PP2A induced by SMAPs, we conducted structural mass spectrometry using radiolytic MS footprinting, a novel approach to probe the structural alterations of complexes such as PP2A. In these experiments, hydroxyl radicals are generated by an X-ray beam and oxidatively modify solvent-exposed amino acid side chains. Areas of a protein that are solvent inaccessible are spared these modifications and can be considered protected regions. Compared to the PP2A A-C dimer alone, addition of Compound 1 induced significant changes in solvent exposure in both the A and C subunits, indicating a conformational change (FIG. 2)."}, "[2]": {"system": "MOLT4", "experiment": "Western blot time course of Y307 dephosphorylation and target engagement", "assay_type": "cell-based", "details": "MOLT4, increasing doses, various timepoints", "method": "FIG. 3 illustrates a western blot analysis showing the kinetics of Y307 dephosphorylation and target engagement induced by Compound 1.\nTo evaluate the kinetics of Y307 dephosphorylation in the context of SMAP-mediated phosphatase activation, a time course study was conducted in the c-Myc driven T-ALL cell line MOLT4 with increasing doses of Compound 1 at various timepoints. PP2A has been well established to dephosphorylate the c-Myc proto-oncogene via dephosphorylation at Serine62 as a priming event for proteasome-mediated degradation, and prior work in the lab has validated Compound 1 mediates c-Myc proteolysis in in vitro models of c-Myc driven disease."}, "[3]": {"system": "A549", "experiment": "MTT assay with Compound 2/Dasatinib dose escalation combinations", "assay_type": "cell-based", "details": "dose escalation of both drugs in parallel"}, "[4]": {"system": "ERK", "experiment": "Time course phosphoproteomics with KSEA, ERK output", "assay_type": "cell-based", "details": "H358 cells, 17.5 μM DT-061, relative to DMSO at the same time-point", "method": "(§1) H358 cells (ATCC) were cultured at 37° C. and 5% CO2 using RPMI media supplemented with 10% FBS and 0.5% penicillin/streptomycin. Per condition, 20 million cells were treated with the appropriate reagent and harvested at the stated time point. The following are the doses used: 17.5 μM DT-061, 1 μM AZD6244, and 0.25 μM MK2206. Cell pellets were then stored at −80° C. for short term. To extract proteins, the cells were pulse sonicated in 2% SDS buffer over ice and in the presence of protease and phosphatase inhibitors. Cysteine amino acid residues were then reduced and alkylated. 800 μg of protein per sample was then digested with Lys-C and Trypsin overnight at 37° C. […]\n(§2) The phospho-enriched peptides were analyzed by LC-MS/MS using a LTQ-Orbitrap Velos mass spectrometer (Thermo Scientific, Calif.) equipped with a nanoAcquity™ Ultra-high pressure liquid chromatography system (Waters, Mass.). […] The LC-MS/MS raw files were imported and analyzed by the Rosetta Elucidator™ and Mascot programs to sequence the peptides and to identify the parent protein.\n(§3) The R programming language was used to generate the data and heat maps. […] Kinase-substrate relationships were determined from the PhosphoSitePlus database. […] The fold change (FC) for each identified hit was then calculated by taking the median peptide intensity with treatment, divided by median peptide intensity with DMSO. […]"}, "[5]": {"system": "SRC", "experiment": "Time course phosphoproteomics with KSEA, SRC output", "assay_type": "cell-based", "details": "H358 cells, 17.5 μM DT-061, relative to DMSO at the same time-point", "method": "as §1, §2, §3"}, "[6]": {"details": "C-terminal tail peptide [303-309]/C, residue Y or F"}, "[7]": {"details": "catalytic subunit peptide [178-186]/C, residue H179"}, "[8]": {"details": "peptide [198-217]/C, residue W200"}, "[9]": {"details": "peptide [200-217]/C, residue W209"}, "[10]": {"details": "peptide [200-223]/C, residue W200"}, "[11]": {"details": "peptide [200-223]/C, residue W209"}, "[12]": {"details": "peptide [200-223]/C, residue Y218"}, "[13]": {"details": "peptide [259-265]/C, residue Y265"}, "[14]": {"details": "peptide [279-286]/C, residue K283"}, "[15]": {"details": "peptide [279-286]/C, residue Y284"}},
  "note": "Entries after “also recorded” stand apart in the source; their conditions may differ.",
  "data": [
    {"molecule": "O=S(=O)(NC[C@H](O)CN1c2ccccc2CCc2ccccc21)c1ccc(OC(F)(F)F)cc1", "note": "[Compound 1]", "values": [
      {"measurement": "Modification Rate, S^−1 + Ligand", "setting": "[1]; [6]", "result": "0.56 ± 0.06", "unit": "S^−1"},
      {"measurement": "Protection factor", "setting": "[1]; [6]", "result": 12.0},
      {"measurement": "decrease in solvent accessibility of the C terminal tail of the catalytic subunit", "setting": "[1]; Compound 1 treatment compared to control", "result": 12, "unit": "fold"},
      {"measurement": "Modification Rate, S^−1 + Ligand", "setting": "[1]; [7]", "result": "2.4 ± 0.2", "unit": "S^−1"},
      {"measurement": "Protection factor", "setting": "[1]; [7]", "result": 7.2},
      {"measurement": "Modification Rate, S^−1 + Ligand", "setting": "[1]; [8]", "result": "1.8 ± 0.2", "unit": "S^−1"},
      {"measurement": "Protection factor", "setting": "[1]; [8]", "result": 6.2},
      {"measurement": "Modification Rate, S^−1 + Ligand", "setting": "[1]; [9]", "result": "2.3 ± 0.1", "unit": "S^−1"},
      {"measurement": "Protection factor", "setting": "[1]; [9]", "result": 4.6},
      {"measurement": "Modification Rate, S^−1 + Ligand", "setting": "[1]; [10]", "result": "1.4 ± 0.1", "unit": "S^−1"},
      {"measurement": "Protection factor", "setting": "[1]; [10]", "result": 4.6},
      {"measurement": "Modification Rate, S^−1 + Ligand", "setting": "[1]; [11]", "result": "2.1 ± 0.1", "unit": "S^−1"},
      {"measurement": "Protection factor", "setting": "[1]; [11]", "result": 5.4},
      {"measurement": "Modification Rate, S^−1 + Ligand", "setting": "[1]; [12]", "result": "0.31 ± 0.03", "unit": "S^−1"},
      {"measurement": "Protection factor", "setting": "[1]; [12]", "result": 0.9},
      {"measurement": "Modification Rate, S^−1 + Ligand", "setting": "[1]; [13]", "result": "0.12 ± 0.001", "unit": "S^−1"},
      {"measurement": "Protection factor", "setting": "[1]; [13]", "result": 4.8},
      {"measurement": "Modification Rate, S^−1 + Ligand", "setting": "[1]; [14]", "result": "0.14 ± 0.01", "unit": "S^−1"},
      {"measurement": "Protection factor", "setting": "[1]; [14]", "result": 15},
      {"measurement": "Modification Rate, S^−1 + Ligand", "setting": "[1]; [15]", "result": "0.13 ± 0.01", "unit": "S^−1"},
      {"measurement": "Protection factor", "setting": "[1]; [15]", "result": 6.1},
      {"measurement": "Parp cleavage", "setting": "[2]", "result": "resulting in Parp cleavage in a similar time-dependent manner"},
      {"measurement": "Y307 dephosphorylation kinetics", "setting": "[2]", "result": "Y307 dephosphorylation occurs as a secondary event to the initial PP2A activation; also recorded: precede Y307 dephosphorylation"},
      {"measurement": "dephosphorylation of c-Myc", "setting": "[2]", "result": "very rapid dephosphorylation of c-Myc"}
    ]},
    {"molecule": "O=S(=O)(N[C@@H]1CCCC(N2c3ccccc3CCc3ccccc32)[C@H]1O)c1ccc(OC(F)(F)F)cc1", "note": "(stereo partly drawn) [Compound 2]", "values": [
      {"measurement": "decrease of the IC50 (GI50) of Compound 2", "setting": "[3]", "result": "nearly two-fold"}
    ]},
    {"molecule": "O=S(=O)(N[C@@H]1CCC[C@H](N2c3ccccc3Oc3ccccc32)[C@H]1O)c1ccc(OC(F)(F)F)cc1", "note": "[DT-061]", "values": [
      {"measurement": "ERK activity output (KSEA)", "setting": "[4]", "result": "limited suppression of ERK output"},
      {"measurement": "SRC activity output (KSEA)", "setting": "[5]", "result": "minimal changes in SRC output"}
    ]}
  ]
}
